Laboratory results taken from paper PMC6256987, “Investigating the Activity Spectrum for Ring-Substituted 8-Hydroxyquinolines” (Molecules, 2010).
Converted amounts (≈) assume the structure as drawn. “And” between values parts separate entries of the source, which are not always exact repeats. Equal values may be shown once. Read-outs that look alike come from different tables or passages of the source.

Experiments:
M. absessus CIT21/06 = assay: In vitro antimycobacterial evaluation (alamarBlue, 96 well plate); assay type: cell-based; details: Middlebrook broth, 37 °C overnight, read-out: MIC/IC90 M. absessus
Absidia corymbifera 272 = assay: In vitro antifungal broth microdilution test; assay type: cell-based; details: Lichtheimia corymbifera, 272, 35 °C, RPMI 1640 pH 7.0, CLSI M38-A (IC50 value)
[1] = tested on: Trichophyton mentagrophytes 445; assay: In vitro antifungal broth microdilution test; assay type: cell-based
[2] = Lipophilicity determination by RP-HPLC (capacity factor k / log k); assay type: physicochemical; details: C18 column, isocratic MeOH 55.0% / H2O 45.0%
Excerpt: A Waters Alliance 2695 XE HPLC separation module and Waters Photodiode Array Detector 2996 (Waters Corp., Milford, MA, USA) were used. A Symmetry® C18 5 μm, 4.6 × 250 mm, Part No. WAT054275, (Waters Corp., Milford, MA, USA) chromatographic column was used. The HPLC separation process was monitored by Millennium32® Chromatography Manager Software, Waters 2004 (Waters Corp., Milford, MA, USA). A mixture of MeOH p.a. (55.0%) and H2O-HPLC– Mili-Q Grade (45.0%) was used as a mobile phase. The total flow of the column was 0.9 mL/min, injection 30 μL, column temperature 30 °C and sample temperature 10 °C. The detection wavelength 210 nm was chosen. The KI methanolic solution was used for the dead time (tD) determination. Retention times (tR) were measured in minutes.
The capacity factors k were calculated using the Millennium32® Chromatography Manager Software according to formula k = (tR - tD)/tD, where tR is the retention time of the solute, whereas tD denotes the dead time obtained via an unretained analyte. Log k, calculated from the capacity factor k, is used as the lipophilicity index converted to log P scale.

[3] = tested on: photosynthetic electron transport (PET) in spinach chloroplasts; assay: Inhibition of photosynthetic electron transport (PET) in spinach chloroplasts, DCPIP photoreduction; assay type: biochemical, Spinacia oleracea L.; details: DCPIP as electron acceptor, phosphate buffer pH 7.2, read-out: PET reduction IC50
Description: Chloroplasts were prepared from spinach (Spinacia oleracea L.) according to Masarovicova and Kralova. The inhibition of photosynthetic electron transport (PET) in spinach chloroplasts was determined spectrophotometrically (Genesys 6, Thermo Scientific, USA) using an artificial electron acceptor 2,6-dichlorophenol-indophenol (DCIPP) according to Kralova et al. and the rate of photosynthetic electron transport was monitored as a photoreduction of DCPIP. The measurements were carried out in phosphate buffer (0.02 mol/L, pH 7.2) containing sucrose (0.4 mol/L), MgCl2 (0.005 mol/L) and NaCl (0.015 mol/L). The chlorophyll content was 30 mg/L in these experiments and the samples were irradiated (~100 W/m^2) from 10 cm distance with a halogen lamp (250 W) using a 4 cm water filter to prevent warming of the samples (suspension temperature 22 °C). The studied compounds were dissolved in DMSO due to their limited water solubility. […] The inhibitory efficiency of the studied compounds was expressed by IC50 values, i.e., by molar concentration of the compounds causing 50% decrease in the oxygen evolution rate relative to the untreated control.

Candida glabrata 20/I = assay: In vitro antifungal broth microdilution test; assay type: cell-based; details: Nakaseomyces glabratus, 20/I, 35 °C, RPMI 1640 pH 7.0, CLSI M27-A2 (IC80 value)
[4] = tested on: Aspergillus fumigatus 231; assay: In vitro antifungal broth microdilution test; assay type: cell-based; details: Aspergillus fumigatus, 231, 35 °C, RPMI 1640 pH 7.0, CLSI M38-A (IC50 value)
M. smegmatis MC2155 = assay: In vitro antimycobacterial evaluation (alamarBlue, 96 well plate); assay type: cell-based; details: Mycolicibacterium smegmatis, Middlebrook broth, 37 °C overnight, read-out: MIC/IC90 M. smegmatis
Candida krusei ATCC 6258 = assay: In vitro antifungal broth microdilution test; assay type: cell-based; details: Pichia kudriavzevii, ATCC6258, 35 °C, RPMI 1640 pH 7.0, CLSI M27-A2 (IC80 value)
M. kansasii CIT11/06 = assay: In vitro antimycobacterial evaluation (alamarBlue, 96 well plate); assay type: cell-based; details: Mycobacterium kansasii, CIT11/06, 120 h, Middlebrook broth, 37 °C 5 days, read-out: MIC/IC90 M. kansasii
[5] = tested on: Candida albicans ATCC 44859; assay: In vitro antifungal broth microdilution test; assay type: cell-based; details: Candida albicans, ATCC44859, 35 °C, RPMI 1640 pH 7.0, CLSI M27-A2 (IC80 value)
Candida tropicalis 156 = assay: In vitro antifungal broth microdilution test; assay type: cell-based; details: Candida tropicalis, 156, 35 °C, RPMI 1640 pH 7.0, CLSI M27-A2 (IC80 value)
[6] = tested on: Mycobacterium avium complex CIT19/06; assay: In vitro antimycobacterial evaluation (alamarBlue, 96 well plate); assay type: cell-based; details: 120 h, Middlebrook broth, 37 °C 5 days, read-out: MIC/IC90 M. avium complex
[7] = tested on: Trichosporon beigelii 1188; assay: In vitro antifungal broth microdilution test; assay type: cell-based; details: Trichosporon beigelii, 1188, 35 °C, RPMI 1640 pH 7.0, CLSI M27-A2 (IC80 value), read-out: MIC TB
Description: Fluconazole (FLU) was used as the standard of a clinically used antimycotic drug. The procedure was performed with twofold dilution of the compounds in RPMI 1640 (Sevapharma a.s., Prague, Czech Republic) buffered to pH 7.0 with 0.165 mol of 3-morpholino-propane-1-sulfonic acid (MOPS, Sigma, Germany). The final concentrations of the compounds ranged from 500 to 0.975 μmol/L. Drug–free controls were included. The MIC determination was performed according to the CLSI (formerly NCCLS) reference protocol M27-A2 for yeasts (IC80 value) and M38-A for moulds (IC50 value). […] The values of MICs were determined after 24 and 48 h of static incubation at 35 °C. For T. mentagrophytes, the final MICs were determined after 72 and 120 h of incubation.

[8] = tested on: photosynthetic electron transport (PET) in spinach chloroplasts; set-up: method as in earlier work; details: standard, read-out: PET reduction IC50; cited from earlier work
[9] = Trichophyton mentagrophytes, 445, 120 h, pH 7
[10] = Trichophyton mentagrophytes, 445, 72h, RPMI 1640 pH 7.0, CLSI M38-A (IC50 value)

| SMILES | MIC (M. absessus CIT21/06) | MIC (Absidia corymbifera 272; 24h) | MIC (Absidia corymbifera 272; 48h) | MIC [1, 9] | MIC [1, 10] | log k [2] | IC50 [3] | MIC (Candida glabrata 20/I; 24h) | MIC (Candida glabrata 20/I; 48h) | MIC ([4]; 24h) | MIC ([4]; 48h) | MIC (M. smegmatis MC2155) | MIC (Candida krusei ATCC 6258; 24h) | MIC (Candida krusei ATCC 6258; 48h) | MIC (M. kansasii CIT11/06) | MIC ([5]; 24h) | MIC ([5]; 48h) | MIC (Candida tropicalis 156; 24h) | MIC (Candida tropicalis 156; 48h) | MIC [6] | other results |
| --- | --- | --- | --- | --- | --- | --- | --- | --- | --- | --- | --- | --- | --- | --- | --- | --- | --- | --- | --- | --- | --- |
| Oc1ccc(C=Cc2ccc3c(Cl)cc(Cl)c(O)c3n2)cc1 [Compound 10, 5,7-Dichloro-2-[2-(4-hydroxyphenyl)vinyl]quinolin-8-ol] | > 300 µg/mL | 31.2 µM (≈ 10.4 µg/mL) | 62.5 µM (≈ 20.8 µg/mL) | 62.5 µM (≈ 20.8 µg/mL) | 15.6 µM (≈ 5.19 µg/mL) | 1.5866 | 660 µM | 125 µM (≈ 41.5 µg/mL) | > 125 µM | 125 µM (≈ 41.5 µg/mL) | 125 µM (≈ 41.5 µg/mL) | 150 µg/mL (≈ 452 µM) | 125 µM (≈ 41.5 µg/mL) | > 125 µM | > 300 µg/mL | 125 µM (≈ 41.5 µg/mL) | > 125 µM | 125 µM (≈ 41.5 µg/mL) | > 125 µM | > 300 µg/mL | MIC ([7]; 24h): 125 µM (≈ 41.5 µg/mL); MIC ([7]; 48h): > 125 µM |
| Oc1ccc(C=Cc2ccc3c(Cl)cc(Cl)c(O)c3n2)c(O)c1 [Compound 11, 5,7-Dichloro-2-[2-(2,4-dihydroxyphenyl)vinyl]quinolin-8-ol] | > 100 µg/mL | – | – | – | – | 1.5858 | – | – | – | – | – | 100 µg/mL (≈ 287 µM) | – | – | > 100 µg/mL | – | – | – | – | > 100 µg/mL | – |
| Oc1cc(O)cc(C=Cc2ccc3c(Cl)cc(Cl)c(O)c3n2)c1 [Compound 12, 5,7-Dichloro-2-[2-(3,5-dihydroxyphenyl)vinyl]quinolin-8-ol] | > 300 µg/mL | 62.5 µM (≈ 21.8 µg/mL) | 62.5 µM (≈ 21.8 µg/mL) | 15.6 µM (≈ 5.44 µg/mL) | 15.6 µM (≈ 5.44 µg/mL) | 1.5867 | 341 µM | > 125 µM | > 125 µM | 125 µM (≈ 43.5 µg/mL) | 125 µM (≈ 43.5 µg/mL) | > 100 µg/mL | > 125 µM | > 125 µM | > 300 µg/mL | > 125 µM | > 125 µM | > 125 µM | > 125 µM | > 300 µg/mL | MIC ([7]; 24h): > 125 µM; MIC ([7]; 48h): > 125 µM |
| CC(=O)Oc1ccc(O)c(C=Cc2ccc3c(Cl)cc(Cl)c(O)c3n2)c1 [Compound 13, 5,7-Dichloro-2-[2-(2-hydroxy-5-acetoxyphenyl)vinyl]quinolin-8-ol] | > 300 µg/mL | – | – | – | – | 1.5864 | – | – | – | – | – | 100 µg/mL (≈ 256 µM) | – | – | > 300 µg/mL | – | – | – | – | > 300 µg/mL | – |
| Oc1c(Cl)cc(Cl)c2ccc(C=Cc3ccc(C=Cc4ccc5c(Cl)cc(Cl)c(O)c5n4)cc3)nc12 [Compound 14, 5,7-Dichloro-2-(2-{4-[2-(5,7-dichloro-8-hydroxyquinolin-2-yl)vinyl]phenyl}vinyl)quinolin-8-ol] | 130 µg/mL (≈ 235 µM) | 15.6 µM (≈ 8.66 µg/mL) | 31.2 µM (≈ 17.3 µg/mL) | 7.81 µM (≈ 4.33 µg/mL) | 3.9 µM (≈ 2.16 µg/mL) | 2.5760 | 334 µM | 0.49 µM (≈ 0.272 µg/mL) | 1.95 µM (≈ 1.08 µg/mL) | 3.9 µM (≈ 2.16 µg/mL) | 15.6 µM (≈ 8.66 µg/mL) | 40 µg/mL (≈ 72.2 µM) | 0.98 µM (≈ 0.543 µg/mL) | 1.95 µM (≈ 1.08 µg/mL) | 40 µg/mL (≈ 72.2 µM) | 0.98 µM (≈ 0.543 µg/mL) | 3.9 µM (≈ 2.16 µg/mL) | 1.95 µM (≈ 1.08 µg/mL) | 7.81 µM (≈ 4.33 µg/mL) | > 300 µg/mL | MIC ([7]; 24h): 3.9 µM (≈ 2.16 µg/mL); MIC ([7]; 48h): 15.6 µM (≈ 8.66 µg/mL) |
| CN(C)C(=O)Nc1ccc(Cl)c(Cl)c1 [DCMU, 3-(3,4-dichlorophenyl)-1,1-dimethylurea] | – | – | – | – | – | – | – | – | – | – | – | – | – | – | – | – | – | – | – | – | IC50 [8]: ~1.9 µM and 1.9 µM |
| NNC(=O)c1ccncc1 [INH, isoniazid, reference compound] | > 100 µg/mL | – | – | – | – | – | – | – | – | – | – | 39 µg/mL (≈ 284 µM) | – | – | < 10 µg/mL | – | – | – | – | < 10 µg/mL | – |
| NC(=O)c1cnccn1 [PZA, pyrazinamide, reference compound] | > 100 µg/mL | – | – | – | – | – | – | – | – | – | – | > 100 µg/mL | – | – | > 100 µg/mL | – | – | – | – | > 100 µg/mL | – |
